Measured values taken from patent publication US8084499B2, “Modified clay mineral” (Ajinomoto Co., Inc., priority 2006, dated 2011).

Experiment: Emulsion stability (B-type viscometer, 60 rpm viscosity / 6 rpm viscosity)
Details: emulsion compositions similar to Example 1, compound of formula (1) with given R1/R2 instead of cocoylarginine ethyl ester
Protocol: A B-type (Brookfield type) viscometer (manufactured by TOKYO KEIKI, DIGITAL VISCOMETER DVL-B) was used. About 100 ml of each emulsion composition was placed in a glass vial container, a rotor was appropriately selected, and the value obtained at a room temperature condition of 25° C., number of rotation of 6 or 60 rpm after 30 seconds was taken as the measurement value at each number of rotation. The measurement value at 60 rpm was divided by the measurement value at 6 rpm, and 0.10 to 0.19 was rated as ⊙, 0.20 to 0.29 was rated as ◯, 0.30 to 0.39 was rated as Δ, and not less than 0.40 was rated as x.
With `CCCCCCCCCCCC(=O)NC(CCCNC(=N)N)C(=O)OCC` (stereo not shown) [lauric acid residue / ethyl group, N-lauroylarginine ethyl ester cation] the “emulsion stability, rating” value was “⊙ (0.10 to 0.19 was rated as ⊙)”. With `CCCCCCCCCCCC(=O)NC(CCCNC(=N)N)C(=O)OCC(C)C` (stereo not shown) [lauric acid residue / isobutyl group, N-lauroylarginine isobutyl ester cation] the “emulsion stability, rating” value was “⊙ (0.10 to 0.19 was rated as ⊙)”. With `CCCCCCCCCCCC(=O)N[C@@H](CCCNC(=N)N)C(=O)OC(C)C` [lauric acid residue / isopropyl group, N-lauroylarginine isopropyl ester cation] the “emulsion stability, rating” value was “⊙ (0.10 to 0.19 was rated as ⊙)”. For `CCCCCCCCCCCC(=O)NC(CCCNC(=N)N)C(=O)OC(C)CC` (stereo not shown) [lauric acid residue / s-butyl group, N-lauroylarginine s-butyl ester cation], the “emulsion stability, rating” value was “⊙ (0.10 to 0.19 was rated as ⊙)”. In the case of `CCCCCCCC/C=C\CCCCCCCC(=O)NC(CCCNC(=N)N)C(=O)OCC` (stereo not shown) [oleic acid residue / ethyl group, N-oleylarginine ethyl ester cation], the “emulsion stability, rating” value is reported as “⊙ (0.10 to 0.19 was rated as ⊙)”. With `CCCCCCCCCCCCCCCC(=O)NC(CCCNC(=N)N)C(=O)OCC` (stereo not shown) [palmitic acid residue / ethyl group, N-palmitoylarginine ethyl ester cation] the “emulsion stability, rating” value was “⊙ (0.10 to 0.19 was rated as ⊙)”. For `CCCCCCCCCCCCCCCCCC(=O)N[C@@H](CCCNC(=N)N)C(=O)OCC` [stearic acid residue / ethyl group, N-stearoylarginine ethyl ester cation], the “emulsion stability, rating” value was “⊙ (0.10 to 0.19 was rated as ⊙)”.
